The target of test [1] is PRMT5/MEP50 (Homo sapiens (Human), UniProt O14744). The test can be described thus: PRMT5 Biochemical Assay (PRMT5/MEP50 enzyme assay on peptide substrate, 3H-SAM Flashplate). To be noted: PRMT5/MEP50 4 nM, 3H-SAM 75 nM, peptide 40 nM. The source says:
S-adenosylmethionine (SAM), S-adenosylhomocysteine (SAH), bicine, KCl, Tween20, dimethylsulfoxide (DMSO), bovine skin gelatin (BSG), and Tris(2-carboxyethyl)phosphine hydrochloride solution (TCEP) were purchased from Sigma-Aldrich at the highest level of purity possible. ^3H-SAM was purchase from American Radiolabeled Chemicals with a specific activity of 80 Ci/mmol. 384-well streptavidin Flashplates were purchased from PerkinElmer.
Peptide representative of human histone H4 residues 1-15 was synthesized with a C-terminal linker-affinity tag motif and a C-terminal amide cap by 21st Century Biochemicals. The peptide was high high-perfomance liquid chromatography (HPLC) purified to greater than 95% purity and confirmed by liquid chromatography mass spectrometry (LC-MS). The sequence was Ac-[…][K-Biot]-amide (SEQ ID NO.:3).
Full-length human PRMT5 (NM_006109.3) transcript variant 1 clone was amplified from a fetal brain cDNA library, incorporating flanking 5′ sequence encoding a FLAG tag ([…]) (SEQ ID NO.:4) fused directly to Ala 2 of PRMT5. Full-length human MEP50 (NM_024102) clone was amplified from a human testis cDNA library incorporating a 5′ sequence encoding a 6-histidine tag (MHHHHHH) (SEQ ID NO.:5) fused directly to Arg 2 of MEP50. The amplified genes were sublconed into pENTR/D/TEV (Life Technologies) and subsequently transferred by Gateway™ attL×attR recombination to pDEST8 baculvirus expression vector (Life Technologies).
Recombinant baculovirus and Baculovirus-Infected Insect Cells (BIIC) were generated according to Bac-to-Bac kit instructions (Life Technologies) and Wasilko, 2006, respectively. Protein over-expression was accomplished by infecting exponentially growing Spodoptera frugiperda (SF9) cell culture at 1.2×10^6 cell/ml with a 5000 fold dilution of BIIC stock. Infections were carried out at 27° C. for 72 hours, harvested by centrifugation, and stored at −80° C. for purification.
Flag-PRMT5/6His-MeP50 was eluted with 300 mM Imidazole in the same buffer. The purity of recovered protein was 87%. Reference: Wasilko, D. J. and S. E. Lee: “TIPS: titerless infected-cells preservation and scale-up” Bioprocess J., 5 (2006), pp. 29-32.
General Procedure for PRMT5/MEP50 Enzyme Assays on Peptide Substrates.
The assays were all performed in a buffer consisting of 20 mM Bicine (pH=7.6), 1 mM TCEP, 0.005% BSG, and 0.002% Tween20, prepared on the day of use. Compounds in 100% DMSO (1 ul) were spotted into a polypropylene 384-well V-bottom plates (Greiner) using a Platemate Plus outfitted with a 384-channel head (Thermo Scientific). DMSO (1 ul) was added to Columns 11, 12, 23, 24, rows A-H for the maximum signal control and 1 ul of SAH, a known product and inhibitor of PRMT5/MEP50, was added to columns 11, 12, 23, 24, rows I-P for the minimum signal control. A cocktail (40 ul) containing the PRMT5/MEP50 enzyme and the peptide was added by Multidrop Combi (Thermo-Fisher). The compounds were allowed to incubate with PRMT5/MEP50 for 30 min at 25 degrees Celsius, then a cocktail (10 ul) containing ^3H-SAM was added to initiate the reaction (final volume=51 ul). The final concentrations of the components were as follows: PRMT5/MEP50 was 4 nM, ^3H-SAM was 75 nM, peptide was 40 nM, SAH in the minimum signal control wells was 100 uM, and the DMSO concentration was 1%. The assays were stopped by the addition of non-radioactive SAM (10 ul) to a final concentration of 600 uM, which dilutes the ^3H-SAM to a level where its incorporation into the peptide substrate is no longer detectable. 50 ul of the reaction in the 384-well polypropylene plate was then transferred to a 384-well Flashplate and the biotinylated peptides were allowed to bind to the streptavidin surface for at least 1 hour before being washed three times with 0.1% Tween20 in a Biotek ELx405 plate washer. […]

The subject of test [2] is Z-138 cells. The test can be described thus: Z-138 Proliferation Assay (Cell Titer Glo). Particulars: Homo sapiens, 120 h, 5 days, top concentration 20 μM. Format: cell-based. The text has this:
[formula] Z-138 Proliferation Assay
Z-138 suspension cells were purchased from ATCC (American Type Culture Collection, Manassas, Va.). RPMI/Glutamax medium, penicillin-streptomycin, heat inactivated fetal bovine serum were purchased from Life Technologies, Grand Island, N.Y., USA. V-bottom polypropylene 384-well plates were purchased from Greiner Bio-One, Monroe, N.C., USA. Cell culture 384-well white opaque plates were purchased from Perkin Elmer, Waltham, Mass., USA. Cell-Titer Glo® was purchased from Promega Corporation, Madison, Wis., USA. SpectraMax M5 plate reader was purchased from Molecular Devices LLC, Sunnyvale, Calif., USA.
Z-138 suspension cells were maintained in growth medium (RPMI 1640 supplemented with 10% v/v heat inactivated fetal bovine serum and cultured at 37° C. under 5% CO2. Under assay conditions, cells were incubated in assay medium (RPMI 1640 supplemented with 10% v/v heat inactivated fetal bovine serum and 100 units/mL penicillin-streptomycin) at 37° C. under 5% CO2.
For the assessment of the effect of compounds on the proliferation of the Z-138 cell line, exponentially growing cells were plated in 384-well white opaque plates at a density of 10,000 cells/ml in a final volume of 50 μl of assay medium. A compound source plate was prepared by performing triplicate nine-point 3-fold serial dilutions in DMSO, beginning at 10 mM (final top concentration of compound in the assay was 20 μM and the DMSO was 0.2%). A 100 nL aliquot from the compound stock plate was added to its respective well in the cell plate. […] After addition of compounds, assay plates were incubated for 5 days at 37° C., 5% CO2, relative humidity >90%. Cell viability was measured by quantitation of ATP present in the cell cultures, adding 35 μl of Cell Titer Glo® reagent to the cell plates. Luminescence was read in the SpectraMax M5 microplate reader. The concentration of compound inhibiting cell viability by 50% was determined using a 4-parametric fit of the normalized dose response curves.

PRMT5/MEP50, sequence (O14744 other isoform, or with tags, fused parts or gaps): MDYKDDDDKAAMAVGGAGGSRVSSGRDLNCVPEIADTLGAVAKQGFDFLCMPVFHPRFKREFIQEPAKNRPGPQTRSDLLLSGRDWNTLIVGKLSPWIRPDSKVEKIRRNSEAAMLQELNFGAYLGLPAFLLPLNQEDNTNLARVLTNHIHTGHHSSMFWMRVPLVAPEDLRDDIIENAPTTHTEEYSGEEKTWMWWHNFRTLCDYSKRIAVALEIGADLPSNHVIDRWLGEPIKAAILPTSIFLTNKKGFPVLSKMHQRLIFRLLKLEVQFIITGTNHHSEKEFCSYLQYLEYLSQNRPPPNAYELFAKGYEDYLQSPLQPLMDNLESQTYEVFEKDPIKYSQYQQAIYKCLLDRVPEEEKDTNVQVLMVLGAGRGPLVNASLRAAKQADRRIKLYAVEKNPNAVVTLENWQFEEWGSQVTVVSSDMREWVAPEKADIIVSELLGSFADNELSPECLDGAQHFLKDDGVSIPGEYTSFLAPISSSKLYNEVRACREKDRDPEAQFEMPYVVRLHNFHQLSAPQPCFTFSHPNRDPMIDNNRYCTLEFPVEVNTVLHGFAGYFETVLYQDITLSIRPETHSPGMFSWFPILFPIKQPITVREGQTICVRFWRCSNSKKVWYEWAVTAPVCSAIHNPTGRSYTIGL
PRMT5/MEP50, sequence (Q9BQA1 other isoform, or with tags, fused parts or gaps partner): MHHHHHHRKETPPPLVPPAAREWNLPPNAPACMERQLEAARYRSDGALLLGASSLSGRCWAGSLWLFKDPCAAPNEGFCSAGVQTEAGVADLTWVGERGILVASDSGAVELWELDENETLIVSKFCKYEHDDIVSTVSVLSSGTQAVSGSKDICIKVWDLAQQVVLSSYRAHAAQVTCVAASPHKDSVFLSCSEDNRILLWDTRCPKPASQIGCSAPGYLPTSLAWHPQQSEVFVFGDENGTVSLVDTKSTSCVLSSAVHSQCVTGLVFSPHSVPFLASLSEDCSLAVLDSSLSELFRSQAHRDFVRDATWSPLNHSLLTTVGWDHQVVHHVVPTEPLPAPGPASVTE

With `O=C1CN(c2cccc3cccnc23)CCN1CC(O)CN1CCc2ccccc2C1` (stereo not shown) [Compound 4, 1-(3-(3,4-dihydroisoquinolin-2(1H)-yl)-2-hydroxypropyl)-4-(quinolin-8-yl)piperazin-2-one], the IC50 in test [1] was less than 100 nM. Further, the EC50 in test [2] was 1000 to 10000 nM.

As to `Cc1ccc(N2CCN(CC(O)CN3CCc4ccccc4C3)C(=O)C2)cc1` (stereo not shown) [Compound 15, 1-(3-(3,4-dihydroisoquinolin-2(1H)-yl)-2-hydroxypropyl)-4-(p-tolyl)piperazin-2-one], the IC50 in test [1] was 101 to 1000 nM. The same compound showed an EC50 in test [2] of more than 20000 nM.

On to `O=C1CN(c2ccccc2Cl)CCN1CC(O)CN1CCc2ccccc2C1` (stereo not shown) [Compound 9], for which the concentration for half-maximal inhibition (IC50) in test [1] was in the range of 101 to 1000 nM. Further, the EC50 in test [2] is 10000 to 50000 nM.

On to `O=C1CN(c2ccc(Cl)cc2)CCN1CC(O)CN1CCc2ccccc2C1` (stereo not shown) [Compound 7, 4-(4-chlorophenyl)-1-(3-(3,4-dihydroisoquinolin-2(1H)-yl)-2-hydroxypropyl)piperazin-2-one], for which, in test [1], the IC50 is less than 100 nM. Further, the EC50 in test [2] lay within 10000 to 50000 nM.

Regarding `CN(C)c1ccccc1N1CCN(C[C@H](O)CN2CCc3ccccc3C2)C(=O)C1` [Compound 29], in test [1], the IC50 is 101 to 1000 nM. In addition, the EC50 in test [2] was in the range of 10000 to 50000 nM.

Consider `O=C1CN(c2cncc(N3CCOCC3)c2)CCN1CC(O)CN1CCc2ccccc2C1` (stereo not shown) [Compound 8, 1-(3-(3,4-dihydroisoquinolin-2(1H)-yl)-2-hydroxypropyl)-4-(5-morpholinopyridin-3-yl)piperazin-2-one], for which the IC50 in test [1] is less than 100 nM. In addition, the EC50 in test [2] was in the range of 1000 to 10000 nM.

With `O=C1Cc2ccccc2N1CC(O)CN1CCc2ccccc2C1` (stereo not shown) [Compound 1, 1-(3-(3,4-dihydroisoquinolin-2(1H)-yl)-2-hydroxypropyl)indolin-2-one], the IC50 in test [1] fell in the range of 101 to 1000 nM. In test [2], this compound returned an EC50 of more than 20000 nM.

As to `O=c1cc(Nc2ccccc2)ccn1C[C@H](O)CN1CCc2ccccc2C1` [Compound 19, (R)-1-(3-(3,4-dihydroisoquinolin-2(1H)-yl)-2-hydroxypropyl)-4-(phenylamino)pyridin-2(1H)-one], the IC50 in test [1] is 101 to 1000 nM. The compound further showed a 50% effective concentration (EC50) in test [2] of more than 20000 nM.

Turning to `O=C1CN(c2cccc(F)c2)CCN1CC(O)CN1CCc2ccccc2C1` (stereo not shown) [Compound 6], the IC50 in test [1] was less than 100 nM. Also, the EC50 in test [2] is more than 20000 nM.

Turning to `O=C1CN(c2cccc(N3CCOCC3)c2)CCN1CC(O)CN1CCc2ccccc2C1` (stereo not shown) [Compound 12, 1-(3-(3,4-dihydroisoquinolin-2(1H)-yl)-2-hydroxypropyl)-4-(3-morpholinophenyl)piperazin-2-one], the IC50 in test [1] was less than 100 nM. For the same compound, in test [2], the EC50 lay in the range of 1000 to 10000 nM.

Turning to `O=C1COc2ccccc2N1CC(O)CN1CCc2ccccc2C1` (stereo not shown) [Compound 31, 4-(3-(3,4-dihydroisoquinolin-2(1H)-yl)-2-hydroxypropyl)-2H-benzo[b][1,4]oxazin-3(4H)-one], the IC50 in test [1] lay in the range of 101 to 1000 nM. Moreover, the EC50 in test [2] is more than 20000 nM.

The record behind these values is US10150758B2, “PRMT5 inhibitors and uses thereof” (Epizyme, Inc., priority 2012, dated 2018).
